Values quoted from earlier work as cited in patent US8883831B2, “Compositions and methods for minimizing or reversing agonist-induced desensitization” (PharmoRx Therapeutics, Inc., priority 2008, dated 2014).

Experiments:
[1] = tested on: chronic pain model in intact rodents; details: ultra-low dose, absence of exogenously administered opioid agonists
[2] = target: pentapeptide segment at the carboxy terminal of Filamin A (Homo sapiens, UniProt P21333); details: read-out: binding affinity
pentapeptide segment at the carboxy terminal of Filamin A, sequence (P21333 whole entry): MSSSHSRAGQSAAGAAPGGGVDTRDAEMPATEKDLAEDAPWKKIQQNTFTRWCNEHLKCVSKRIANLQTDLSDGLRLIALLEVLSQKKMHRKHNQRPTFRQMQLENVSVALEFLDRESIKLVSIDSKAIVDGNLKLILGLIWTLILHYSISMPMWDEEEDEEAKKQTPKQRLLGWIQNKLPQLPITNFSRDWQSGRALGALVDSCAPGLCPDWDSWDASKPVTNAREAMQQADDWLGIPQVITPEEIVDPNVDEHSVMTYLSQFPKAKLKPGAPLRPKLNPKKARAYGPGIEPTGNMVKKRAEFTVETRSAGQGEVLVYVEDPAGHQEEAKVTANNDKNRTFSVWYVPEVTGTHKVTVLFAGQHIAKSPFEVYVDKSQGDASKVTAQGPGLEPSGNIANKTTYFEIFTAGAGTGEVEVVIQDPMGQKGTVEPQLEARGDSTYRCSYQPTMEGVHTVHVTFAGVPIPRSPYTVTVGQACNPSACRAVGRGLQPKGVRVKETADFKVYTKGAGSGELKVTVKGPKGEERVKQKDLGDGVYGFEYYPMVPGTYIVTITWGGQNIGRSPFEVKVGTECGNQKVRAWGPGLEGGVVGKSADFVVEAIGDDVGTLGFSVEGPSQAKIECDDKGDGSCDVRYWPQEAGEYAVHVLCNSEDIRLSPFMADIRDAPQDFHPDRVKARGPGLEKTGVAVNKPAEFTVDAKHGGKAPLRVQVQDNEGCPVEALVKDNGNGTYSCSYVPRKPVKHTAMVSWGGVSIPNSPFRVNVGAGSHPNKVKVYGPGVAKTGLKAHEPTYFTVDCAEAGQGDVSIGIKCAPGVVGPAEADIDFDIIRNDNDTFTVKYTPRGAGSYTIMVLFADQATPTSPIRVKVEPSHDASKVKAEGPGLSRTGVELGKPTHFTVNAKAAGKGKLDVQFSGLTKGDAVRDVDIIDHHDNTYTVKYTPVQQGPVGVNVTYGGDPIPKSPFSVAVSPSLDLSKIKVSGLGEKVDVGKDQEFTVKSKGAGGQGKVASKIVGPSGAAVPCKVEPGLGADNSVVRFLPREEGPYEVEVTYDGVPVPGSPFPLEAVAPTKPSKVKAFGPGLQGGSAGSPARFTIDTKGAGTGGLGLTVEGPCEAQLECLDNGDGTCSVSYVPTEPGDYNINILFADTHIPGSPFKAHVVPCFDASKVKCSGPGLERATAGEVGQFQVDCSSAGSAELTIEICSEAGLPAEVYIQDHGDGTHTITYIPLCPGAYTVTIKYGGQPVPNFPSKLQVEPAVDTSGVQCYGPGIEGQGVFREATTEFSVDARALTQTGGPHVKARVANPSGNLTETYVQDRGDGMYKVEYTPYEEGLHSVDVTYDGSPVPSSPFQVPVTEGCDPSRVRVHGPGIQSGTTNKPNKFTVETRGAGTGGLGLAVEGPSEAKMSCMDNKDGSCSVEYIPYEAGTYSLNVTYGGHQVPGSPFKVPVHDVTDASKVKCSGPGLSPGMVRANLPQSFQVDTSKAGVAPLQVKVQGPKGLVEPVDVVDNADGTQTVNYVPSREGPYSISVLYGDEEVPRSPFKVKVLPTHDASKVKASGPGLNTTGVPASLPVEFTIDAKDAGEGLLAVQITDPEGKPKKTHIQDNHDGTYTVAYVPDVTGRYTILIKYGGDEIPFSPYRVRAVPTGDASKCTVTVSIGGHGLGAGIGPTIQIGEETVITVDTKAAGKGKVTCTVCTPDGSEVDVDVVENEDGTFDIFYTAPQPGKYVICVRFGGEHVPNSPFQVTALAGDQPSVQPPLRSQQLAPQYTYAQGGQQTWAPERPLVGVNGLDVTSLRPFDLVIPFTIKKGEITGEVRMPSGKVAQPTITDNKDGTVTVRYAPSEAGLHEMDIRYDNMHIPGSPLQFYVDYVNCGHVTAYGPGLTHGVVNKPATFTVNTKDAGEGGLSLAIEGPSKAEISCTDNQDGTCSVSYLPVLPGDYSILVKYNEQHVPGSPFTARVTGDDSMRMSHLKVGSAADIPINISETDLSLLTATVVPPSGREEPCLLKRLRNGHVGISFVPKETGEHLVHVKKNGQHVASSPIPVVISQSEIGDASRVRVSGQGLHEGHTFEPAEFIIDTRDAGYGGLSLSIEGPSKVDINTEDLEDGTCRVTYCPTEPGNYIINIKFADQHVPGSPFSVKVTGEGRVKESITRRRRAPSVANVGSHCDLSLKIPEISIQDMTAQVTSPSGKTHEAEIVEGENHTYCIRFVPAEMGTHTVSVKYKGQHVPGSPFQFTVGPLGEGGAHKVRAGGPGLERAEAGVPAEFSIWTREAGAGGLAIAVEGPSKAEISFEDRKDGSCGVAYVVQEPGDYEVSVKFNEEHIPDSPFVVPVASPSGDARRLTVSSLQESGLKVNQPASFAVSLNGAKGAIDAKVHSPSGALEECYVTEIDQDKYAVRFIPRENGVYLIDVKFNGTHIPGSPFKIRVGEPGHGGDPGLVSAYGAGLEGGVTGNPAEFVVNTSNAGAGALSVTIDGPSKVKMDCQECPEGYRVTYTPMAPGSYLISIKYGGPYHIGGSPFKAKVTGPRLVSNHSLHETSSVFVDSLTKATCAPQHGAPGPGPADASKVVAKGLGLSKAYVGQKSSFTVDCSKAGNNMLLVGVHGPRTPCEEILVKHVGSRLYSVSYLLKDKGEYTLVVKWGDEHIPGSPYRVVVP

O=C1CC[C@@]2(O)[C@H]3Cc4ccc(O)c5c4[C@@]2(CCN3CC2CC2)[C@H]1O5 [naltrexone]
effect in chronic pain model [1]: no effect
Kd [2]: 4 pM
